Data on 21 compounds can be found in patent publication US9999619B2, “Piperidin-4-yl azetidine derivatives as JAK1 inhibitors” (Incyte Corporation, priority 2010, dated 2018).

Holding throughout (type): biochemical
For one assay, the target named is Jak2 (a.a. 828-1132) (Homo sapiens (Human), UniProt O60674). The assay is described as follows: In vitro JAK kinase assay (HTRF, phosphorylation of a biotinylated peptide), JAK2. Particulars: measured at 1 mM ATP. The method in brief:
(§1)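 N-terminally His-tagged catalytic domains, baculovirus-expressed in insect cells and purified, were used as enzyme. Reactions ran 1 hr at room temperature and were stopped with a mix of 45 mM EDTA, 300 nM SA-APC and 6 nM Eu-Py20. The HTRF signal was read after 40 min of antibody binding.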

In assay [1] the target is human JAK1 (a.a. 837-1142). The assay is described as follows: In vitro JAK kinase assay (HTRF, phosphorylation of a biotinylated peptide), JAK1. As to conditions: ratio of JAK2 IC50 to JAK1 IC50, measured at 1 mM ATP. The method in brief:
as §1

In assay [2] the target is human JAK1 (a.a. 837-1142) (Homo sapiens, UniProt P23458). Described as above. Particulars: measured at 1 mM ATP. The method in brief:
as §1

Bounds are passed on as bounds.

Chain of Jak2 (a.a. 828-1132) (O60674 828-1132): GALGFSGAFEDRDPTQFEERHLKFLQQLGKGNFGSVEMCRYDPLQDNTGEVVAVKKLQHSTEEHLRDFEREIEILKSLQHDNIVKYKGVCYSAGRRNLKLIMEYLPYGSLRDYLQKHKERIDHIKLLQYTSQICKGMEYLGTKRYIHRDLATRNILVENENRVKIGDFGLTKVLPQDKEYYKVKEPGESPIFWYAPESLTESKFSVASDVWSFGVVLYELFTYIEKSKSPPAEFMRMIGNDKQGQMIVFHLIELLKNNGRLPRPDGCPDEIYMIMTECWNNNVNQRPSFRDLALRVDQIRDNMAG

The IC50 is the concentration at which inhibition is half-maximal. Low values mean higher potency, high ones lower potency. On to `N#CCC1(n2cc(-c3ncnc4[nH]ccc34)cn2)CN(C2CCN(C(=O)Nc3cccc(C(F)(F)F)c3F)CC2)C1` [Example 170, 4-{3-(cyanomethyl)-3-[4-(7H-pyrrolo[2,3-d]pyrimidin-4-yl)-1H-pyrazol-1-yl]azetidin-1-yl}-N-[2-fluoro-3-(trifluoromethyl)phenyl]piperidine-1-carboxamide], for which the figures for the IC50 (against Jak2 (a.a. 828-1132); in assay [2]) were 10 to 50 nM and no more than 5 nM, respectively. Besides, in assay [1], the “IC50 Ratio JAK2/JAK1” value turned out to be 6.9.

Consider `N#CCC1(n2cc(-c3ncnc4[nH]ccc34)cn2)CN(C2CCN(C(=O)Nc3ccc(F)cc3F)CC2)C1` [Example 171, 4-{3-(cyanomethyl)-3-[4-(7H-pyrrolo[2,3-d]pyrimidin-4-yl)-1H-pyrazol-1-yl]azetidin-1-yl}-N-(2,4-difluorophenyl)piperidine-1-carboxamide], for which the IC50 was 10 to 50 nM against Jak2 (a.a. 828-1132) and no more than 5 nM in assay [2]. Besides, the “IC50 Ratio JAK2/JAK1” value in assay [1] is recorded as 7.5.

For the compound `N#CCC1(n2cc(-c3ncnc4[nH]ccc34)cn2)CN(C2CCN(C(=O)Nc3cc(F)cc(F)c3F)CC2)C1` [Example 173, 4-{3-(cyanomethyl)-3-[4-(7H-pyrrolo[2,3-d]pyrimidin-4-yl)-1H-pyrazol-1-yl]azetidin-1-yl}-N-(2,3,5-trifluorophenyl)piperidine-1-carboxamide], the IC50 is 10 to 50 nM on Jak2 (a.a. 828-1132) and 5 to 20 nM in assay [2]. The “IC50 Ratio JAK2/JAK1” value in assay [1] is on record as 5.7.

Take `N#CCC1(n2cc(-c3ncnc4[nH]ccc34)cn2)CN(C2CCN(C(=O)Nc3cc(F)ccc3F)CC2)C1` [Example 174, 4-{3-(cyanomethyl)-3-[4-(7H-pyrrolo[2,3-d]pyrimidin-4-yl)-1H-pyrazol-1-yl]azetidin-1-yl}-N-(2,5-difluorophenyl)piperidine-1-carboxamide]: the values for the IC50 (at Jak2 (a.a. 828-1132); in assay [2]) were no more than 10 nM and no more than 5 nM, respectively. For the same compound, the “IC50 Ratio JAK2/JAK1” value in assay [1] came out at 7.1.

Regarding `N#CCC1(n2cc(-c3ncnc4[nH]ccc34)cn2)CN(C2CCN(C(=O)Nc3cc(F)cc(F)c3)CC2)C1` [Example 175, 4-{3-(cyanomethyl)-3-[4-(7H-pyrrolo[2,3-d]pyrimidin-4-yl)-1H-pyrazol-1-yl]azetidin-1-yl}-N-(3,5-difluorophenyl)piperidine-1-carboxamide], the IC50 at Jak2 (a.a. 828-1132) is no more than 10 nM; in assay [2], no more than 5 nM. The “IC50 Ratio JAK2/JAK1” value in assay [1] worked out at 3.6.

Consider `N#CCC1(n2cc(-c3ncnc4[nH]ccc34)cn2)CN(C2CCN(C(=O)Nc3ccc(F)c(F)c3)CC2)C1` [Example 176, 4-{3-(cyanomethyl)-3-[4-(7H-pyrrolo[2,3-d]pyrimidin-4-yl)-1H-pyrazol-1-yl]azetidin-1-yl}-N-(3,4-difluorophenyl)piperidine-1-carboxamide], for which the figures for the IC50 (against Jak2 (a.a. 828-1132); in assay [2]) were no more than 10 nM and no more than 5 nM, respectively. Besides, in assay [1], the “IC50 Ratio JAK2/JAK1” value is reported as 5.1.

As to `N#CCC1(n2cc(-c3ncnc4[nH]ccc34)cn2)CN(C2CCN(C(=O)Nc3cccc(Cl)c3F)CC2)C1` [Example 177, N-(3-chloro-2-fluorophenyl)-4-{3-(cyanomethyl)-3-[4-(7H-pyrrolo[2,3-d]pyrimidin-4-yl)-1H-pyrazol-1-yl]azetidin-1-yl}piperidine-1-carboxamide], the values for the IC50 (at Jak2 (a.a. 828-1132); in assay [2]) were no more than 10 nM and no more than 5 nM, respectively. Further, the “IC50 Ratio JAK2/JAK1” value in assay [1] worked out at 8.5.

Turning to `N#CCC1(n2cc(-c3ncnc4[nH]ccc34)cn2)CN(C2CCN(C(=O)Nc3ccc(Cl)cc3F)CC2)C1` [Example 178, N-(4-chloro-2-fluorophenyl)-4-{3-(cyanomethyl)-3-[4-(7H-pyrrolo[2,3-d]pyrimidin-4-yl)-1H-pyrazol-1-yl]azetidin-1-yl}piperidine-1-carboxamide], the IC50 is no more than 10 nM at Jak2 (a.a. 828-1132) and no more than 5 nM in assay [2]. Further, the “IC50 Ratio JAK2/JAK1” value in assay [1] is recorded as 6.5.

As to `N#CCC1(n2cc(-c3ncnc4[nH]ccc34)cn2)CN(C2CCN(C(=O)Nc3ccsc3)CC2)C1` [Example 179, 4-{3-(cyanomethyl)-3-[4-(7H-pyrrolo[2,3-d]pyrimidin-4-yl)-1H-pyrazol-1-yl]azetidin-1-yl}-N-3-thienylpiperidine-1-carboxamide], the IC50 fell in the range of 50 to 100 nM on Jak2 (a.a. 828-1132) and 5 to 20 nM in assay [2]. Besides, the “IC50 Ratio JAK2/JAK1” value in assay [1] came to 3.8.

With `COc1ccccc1NC(=O)N1CCC(N2CC(CC#N)(n3cc(-c4ncnc5[nH]ccc45)cn3)C2)CC1` [Example 180, 4-{3-(cyanomethyl)-3-[4-(7H-pyrrolo[2,3-d]pyrimidin-4-yl)-1H-pyrazol-1-yl]azetidin-1-yl}-N-(2-methoxyphenyl)piperidine-1-carboxamide], the values for the IC50 (at Jak2 (a.a. 828-1132); in assay [2]) were 10 to 50 nM and no more than 5 nM, respectively. The “IC50 Ratio JAK2/JAK1” value in assay [1] turned out to be 4.0.

With `COc1cccc(NC(=O)N2CCC(N3CC(CC#N)(n4cc(-c5ncnc6[nH]ccc56)cn4)C3)CC2)c1` [Example 181, 4-{3-(cyanomethyl)-3-[4-(7H-pyrrolo[2,3-d]pyrimidin-4-yl)-1H-pyrazol-1-yl]azetidin-1-yl}-N-(3-methoxyphenyl)piperidine-1-carboxamide], the IC50 is 10 to 50 nM against Jak2 (a.a. 828-1132) and no more than 5 nM in assay [2]. Besides, in assay [1], the “IC50 Ratio JAK2/JAK1” value is 4.9.

In the case of `N#CCC1(n2cc(-c3ncnc4[nH]ccc34)cn2)CN(C2CCN(C(=O)Nc3ccc(OC(F)(F)F)cc3)CC2)C1` [Example 182, 4-{3-(cyanomethyl)-3-[4-(7H-pyrrolo[2,3-d]pyrimidin-4-yl)-1H-pyrazol-1-yl]azetidin-1-yl}-N-[4-(trifluoromethoxy)phenyl]piperidine-1-carboxamide], the values for the IC50 (at Jak2 (a.a. 828-1132); in assay [2]) were 10 to 50 nM and 5 to 20 nM, respectively. The “IC50 Ratio JAK2/JAK1” value in assay [1] was determined as 3.7.

In the case of `N#CCC1(n2cc(-c3ncnc4[nH]ccc34)cn2)CN(C2CCN(C(=O)Nc3cccc(Cl)c3)CC2)C1` [Example 183, N-(3-chlorophenyl)-4-{3-(cyanomethyl)-3-[4-(7H-pyrrolo[2,3-d]pyrimidin-4-yl)-1H-pyrazol-1-yl]azetidin-1-yl}piperidine-1-carboxamide], the IC50 is no more than 10 nM on Jak2 (a.a. 828-1132) and no more than 5 nM in assay [2]. Moreover, in assay [1], the “IC50 Ratio JAK2/JAK1” value came out at 3.8.

Regarding `N#CCC1(n2cc(-c3ncnc4[nH]ccc34)cn2)CN(C2CCN(C(=O)Nc3ccc(Cl)cc3)CC2)C1` [Example 184, N-(4-chlorophenyl)-4-{3-(cyanomethyl)-3-[4-(7H-pyrrolo[2,3-d]pyrimidin-4-yl)-1H-pyrazol-1-yl]azetidin-1-yl}piperidine-1-carboxamide], the half-maximal inhibitory concentration (IC50) was no more than 10 nM on Jak2 (a.a. 828-1132) and no more than 5 nM in assay [2]. For the same compound, the “IC50 Ratio JAK2/JAK1” value in assay [1] amounted to 3.9.

Turning to `Cc1ccccc1NC(=O)N1CCC(N2CC(CC#N)(n3cc(-c4ncnc5[nH]ccc45)cn3)C2)CC1` [Example 185, 4-{3-(cyanomethyl)-3-[4-(7H-pyrrolo[2,3-d]pyrimidin-4-yl)-1H-pyrazol-1-yl]azetidin-1-yl}-N-(2-methylphenyl)piperidine-1-carboxamide], the figures for the IC50 (against Jak2 (a.a. 828-1132); in assay [2]) were 10 to 50 nM and no more than 5 nM, respectively. Also, the “IC50 Ratio JAK2/JAK1” value in assay [1] came to 9.5.

Consider `COc1ccc(OC)c(NC(=O)N2CCC(N3CC(CC#N)(n4cc(-c5ncnc6[nH]ccc56)cn4)C3)CC2)c1` [Example 186, 4-{3-(cyanomethyl)-3-[4-(7H-pyrrolo[2,3-d]pyrimidin-4-yl)-1H-pyrazol-1-yl]azetidin-1-yl}-N-(2,5-dimethoxyphenyl)piperidine-1-carboxamide], for which the IC50 is 10 to 50 nM at Jak2 (a.a. 828-1132) and no more than 5 nM in assay [2]. In addition, the “IC50 Ratio JAK2/JAK1” value in assay [1] was found to be 5.5.

For `Cc1ccc(NC(=O)N2CCC(N3CC(CC#N)(n4cc(-c5ncnc6[nH]ccc56)cn4)C3)CC2)c(C)n1` [Example 189, 4-{3-(cyanomethyl)-3-[4-(7H-pyrrolo[2,3-d]pyrimidin-4-yl)-1H-pyrazol-1-yl]azetidin-1-yl}-N-(2,6-dimethylpyridin-3-yl)piperidine-1-carboxamide], the IC50 against Jak2 (a.a. 828-1132) was in the range of 10 to 50 nM; in assay [2] it was 5 to 20 nM. In addition, in assay [1], the “IC50 Ratio JAK2/JAK1” value is on record as 3.5.

For the compound `N#CCC1(n2cc(-c3ncnc4[nH]ccc34)cn2)CN(C2CCN(C(=O)Nc3nccs3)CC2)C1` [Example 190, 4-{3-(cyanomethyl)-3-[4-(7H-pyrrolo[2,3-d]pyrimidin-4-yl)-1H-pyrazol-1-yl]azetidin-1-yl}-N-1,3-thiazol-2-ylpiperidine-1-carboxamide], the IC50 lay in the range of 50 to 100 nM against Jak2 (a.a. 828-1132) and 20 to 30 nM in assay [2]. The “IC50 Ratio JAK2/JAK1” value in assay [1] is reported as 2.1.

Regarding `Cc1csc(NC(=O)N2CCC(N3CC(CC#N)(n4cc(-c5ncnc6[nH]ccc56)cn4)C3)CC2)n1` [Example 191, 4-{3-(cyanomethyl)-3-[4-(7H-pyrrolo[2,3-d]pyrimidin-4-yl)-1H-pyrazol-1-yl]azetidin-1-yl}-N-(4-methyl-1,3-thiazol-2-yl)piperidine-1-carboxamide], the IC50 was in the range of 10 to 50 nM against Jak2 (a.a. 828-1132) and 20 to 30 nM in assay [2]. For the same compound, the “IC50 Ratio JAK2/JAK1” value in assay [1] stood at 1.4.

Consider `Cc1nc(NC(=O)N2CCC(N3CC(CC#N)(n4cc(-c5ncnc6[nH]ccc56)cn4)C3)CC2)sc1C` [Example 192, 4-{3-(cyanomethyl)-3-[4-(7H-pyrrolo[2,3-d]pyrimidin-4-yl)-1H-pyrazol-1-yl]azetidin-1-yl}-N-(4,5-dimethyl-1,3-thiazol-2-yl)piperidine-1-carboxamide], for which the results for the IC50 (on Jak2 (a.a. 828-1132); in assay [2]) were 10 to 50 nM and 5 to 20 nM, respectively. Further, in assay [1], the “IC50 Ratio JAK2/JAK1” value is 3.0.

`N#CCC1(n2cc(-c3ncnc4[nH]ccc34)cn2)CN(C2CCN(C(=O)Nc3nc4ccccc4s3)CC2)C1` [Example 193, N-1,3-benzothiazol-2-yl-4-{3-(cyanomethyl)-3-[4-(7H-pyrrolo[2,3-d]pyrimidin-4-yl)-1H-pyrazol-1-yl]azetidin-1-yl}piperidine-1-carboxamide]: the IC50 is no more than 10 nM on Jak2 (a.a. 828-1132) and no more than 5 nM in assay [2]. In assay [1], the “IC50 Ratio JAK2/JAK1” value is 0.5.
